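A five-concentration, 48-hour dose response in 96-well plates underlies each endpoint, interpolated linearly between surrounding concentrations. GI50 marks 50% less growth.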 Calls of active or inactive are those of the source. Rule as the data show it: active = GI50 up to about 1.1 µM and inactive = higher.
Experiments:
Assay in all cases: NCI tumour cell line growth inhibition, 48 h
[1] = tested on: 786-0
[2] = tested on: A498
[3] = tested on: ACHN
[4] = tested on: BT-549
[5] = tested on: CAKI-1
[6] = tested on: CCRF-CEM
[7] = tested on: COLO 205
[8] = tested on: DU-145
[9] = tested on: EKVX
[10] = tested on: HCT-116
[11] = tested on: HCT-15
[12] = tested on: HL-60
[13] = tested on: HT-29
[14] = tested on: Hs-578T
[15] = tested on: IGROV-1
[16] = tested on: K562
[17] = tested on: KM12
[18] = tested on: LOX IMVI
[19] = tested on: M14
[20] = tested on: MCF7
[21] = tested on: MDA-MB-231
[22] = tested on: MDA-MB-435
[23] = tested on: MDA-N
[24] = tested on: MOLT-4
[25] = tested on: Malme-3M
[26] = tested on: NCI-H226
[27] = tested on: NCI-H23
[28] = tested on: NCI-H460
[29] = tested on: NCI/ADR-RES
[30] = tested on: OVCAR-3
[31] = tested on: OVCAR-5
[32] = tested on: OVCAR-8
[33] = tested on: PC-3
[34] = tested on: RPMI-8226
[35] = tested on: RXF 393
[36] = tested on: SF-268
[37] = tested on: SF-295
[38] = tested on: SF-539
[39] = tested on: SK-MEL-28
[40] = tested on: SK-MEL-2
[41] = tested on: SK-MEL-5
[42] = tested on: SK-OV-3
[43] = tested on: SN12C
[44] = tested on: SNB-19
[45] = tested on: SR
[46] = tested on: SW-620
[47] = tested on: T47D
[48] = tested on: TK-10
[49] = tested on: U-251
[50] = tested on: UACC-257
[51] = tested on: UACC-62
[52] = tested on: UO-31
[53] = tested on: A549
[54] = tested on: HOP-62
[55] = tested on: HCC 2998
[56] = tested on: NCI-H522
[57] = tested on: OVCAR-4
[58] = tested on: SNB-75

In the case of O=C(c1cccs1)N(C(=S)OCc1ccccn1)c1ccccc1, the GI50 [1] is reported as > 100 µM (inactive), the GI50 [2] is reported as 75.5 µM (inactive) and the GI50 [3] is reported as 50.6 µM (inactive). For the same compound, the GI50 [4] was 47.3 µM (inactive), the GI50 [5] was > 100 µM (inactive) and the GI50 [6] was 40.6 µM (inactive). The GI50 [7] was 88.1 µM (inactive), the GI50 [8] was 69.2 µM (inactive) and the GI50 [9] was 14.4 µM (inactive). For the same compound, the GI50 [10] was 63.5 µM (inactive), the GI50 [11] was 53.2 µM and the GI50 [12] was 38.4 µM (inactive). For the same compound, the GI50 [13] was 33.2 µM (inactive), the GI50 [14] was 38.3 µM (inactive) and the GI50 [15] was 28.8 µM (inactive). For the same compound, the GI50 [16] was 42 µM (inactive), the GI50 [17] was 84.9 µM (inactive) and the GI50 [18] was 96.4 µM (inactive). The GI50 [19] was > 100 µM (inactive), the GI50 [20] was 68.4 µM (inactive) and the GI50 [21] was 59.7 µM (inactive). The GI50 [22] was > 100 µM (inactive), the GI50 [23] was > 100 µM (inactive) and the GI50 [24] was 45.7 µM (inactive). The GI50 [25] was 18.6 µM (inactive), the GI50 [26] was 32.9 µM (inactive) and the GI50 [27] was 84.9 µM (inactive). The GI50 [28] was 70.3 µM (inactive), the GI50 [29] was 35.2 µM (inactive) and the GI50 [30] was 76.9 µM (inactive). The GI50 [31] was 23.4 µM (inactive), the GI50 [32] was 56.5 µM (inactive) and the GI50 [33] was 47.8 µM (inactive). For the same compound, the GI50 [34] was 37.4 µM (inactive), the GI50 [35] was 31 µM (inactive) and the GI50 [36] was > 100 µM (inactive). For the same compound, the GI50 [37] was 40.4 µM (inactive), the GI50 [38] was 38.5 µM (inactive) and the GI50 [39] was > 100 µM (inactive). The GI50 [40] was > 100 µM (inactive), the GI50 [41] was 51.2 µM (inactive) and the GI50 [42] was > 100 µM (inactive). The GI50 [43] was 50.7 µM (inactive), the GI50 [44] was > 100 µM (inactive) and the GI50 [45] was > 100 µM (inactive). For the same compound, the GI50 [46] was 92 µM (inactive), the GI50 [47] was 53.8 µM (inactive) and the GI50 [48] was > 100 µM (inactive). The GI50 [49] was 92.5 µM (inactive), the GI50 [50] was > 100 µM (inactive) and the GI50 [51] was > 100 µM (inactive). The GI50 [52] was 32.6 µM (inactive).
For c1ccc(C2C3=C(CCCC3)Nc3nnnn32)cc1 (stereo not given), the GI50 [1] was > 100 µM (inactive), the GI50 [2] was 19.2 µM (inactive) and the GI50 [53] was 64 µM (inactive). The GI50 [3] was 82.4 µM (inactive), the GI50 [4] was 34.8 µM (inactive) and the GI50 [5] was > 100 µM (inactive). The GI50 [7] was > 100 µM (inactive), the GI50 [8] was > 100 µM (inactive) and the GI50 [10] was > 100 µM (inactive). The GI50 [11] was > 100 µM, the GI50 [12] was 33.1 µM (inactive) and the GI50 [54] was > 100 µM (inactive). The GI50 [14] was 64 µM (inactive), the GI50 [15] was > 100 µM (inactive) and the GI50 [16] was 32.4 µM (inactive). For the same compound, the GI50 [17] was > 100 µM (inactive), the GI50 [18] was > 100 µM (inactive) and the GI50 [19] was > 100 µM (inactive). The GI50 [20] was 13.8 µM (inactive), the GI50 [21] was > 100 µM (inactive) and the GI50 [22] was 72.6 µM (inactive). The GI50 [23] was 98.4 µM (inactive), the GI50 [24] was 53 µM (inactive) and the GI50 [27] was > 100 µM (inactive). The GI50 [28] was 12.9 µM (inactive), the GI50 [29] was 98.9 µM (inactive) and the GI50 [30] was 37.8 µM (inactive). For the same compound, the GI50 [31] was > 100 µM (inactive), the GI50 [32] was > 100 µM (inactive) and the GI50 [33] was 68.1 µM (inactive). The GI50 [35] was 0.226 µM (active), the GI50 [36] was 12.5 µM (inactive) and the GI50 [37] was 57.4 µM (inactive). The GI50 [38] was > 100 µM (inactive), the GI50 [40] was 34.4 µM (inactive) and the GI50 [41] was 48.9 µM (inactive). The GI50 [42] was > 100 µM (inactive), the GI50 [43] was > 100 µM (inactive) and the GI50 [44] was > 100 µM (inactive). The GI50 [45] was > 100 µM (inactive), the GI50 [46] was > 100 µM (inactive) and the GI50 [47] was 25.4 µM (inactive). The GI50 [49] was > 100 µM (inactive), the GI50 [50] was > 100 µM (inactive) and the GI50 [51] was 56.2 µM (inactive). For the same compound, the GI50 [52] was > 100 µM (inactive).
CCOC(=O)C1(Cc2ccc3c(c2)CCC3)Cc2cc3c(cc2C1=O)CCC3 (stereo not given) was tested, and the GI50 [1] was > 100 µM (inactive), the GI50 [2] was > 42.7 µM (inactive) and the GI50 [53] was 44 µM (inactive). The GI50 [3] was > 69.8 µM (inactive), the GI50 [4] was 76.7 µM (inactive) and the GI50 [5] was > 46.3 µM (inactive). The GI50 [6] was 11.9 µM (inactive), the GI50 [7] was 41.7 µM (inactive) and the GI50 [8] was 75.5 µM (inactive). The GI50 [9] was 97.5 µM (inactive), the GI50 [55] was 62.5 µM (inactive) and the GI50 [10] was 16.7 µM (inactive). The GI50 [11] was 58.6 µM, the GI50 [12] was 2.84 µM (inactive) and the GI50 [54] was > 100 µM (inactive). For the same compound, the GI50 [13] was 31.6 µM (inactive), the GI50 [14] was > 100 µM (inactive) and the GI50 [15] was > 100 µM (inactive). The GI50 [16] was 9.95 µM (inactive), the GI50 [17] was > 50.9 µM (inactive) and the GI50 [18] was > 71.6 µM (inactive). The GI50 [19] was > 57.4 µM (inactive), the GI50 [20] was 33.7 µM (inactive) and the GI50 [21] was 48.4 µM (inactive). The GI50 [22] was 36.3 µM (inactive), the GI50 [23] was 41.4 µM (inactive) and the GI50 [24] was 11.9 µM (inactive). The GI50 [25] was > 61.2 µM (inactive), the GI50 [26] was > 83 µM (inactive) and the GI50 [27] was 49.4 µM (inactive). For the same compound, the GI50 [28] was 41.9 µM (inactive), the GI50 [56] was 47.8 µM (inactive) and the GI50 [29] was 36 µM (inactive). For the same compound, the GI50 [30] was > 100 µM (inactive), the GI50 [57] was 52 µM (inactive) and the GI50 [31] was > 100 µM (inactive). For the same compound, the GI50 [32] was > 91.2 µM (inactive), the GI50 [33] was 16.1 µM (inactive) and the GI50 [34] was 19.2 µM (inactive). The GI50 [36] was 98.4 µM (inactive), the GI50 [37] was 48.3 µM (inactive) and the GI50 [38] was > 100 µM (inactive). For the same compound, the GI50 [39] was > 100 µM (inactive), the GI50 [40] was > 100 µM (inactive) and the GI50 [41] was 20.1 µM (inactive). For the same compound, the GI50 [42] was > 100 µM (inactive), the GI50 [43] was 66.2 µM (inactive) and the GI50 [44] was > 100 µM (inactive). The GI50 [58] was 53.7 µM (inactive), the GI50 [45] was 44.3 µM (inactive) and the GI50 [46] was > 85.1 µM (inactive). The GI50 [47] was 14.2 µM (inactive), the GI50 [48] was > 100 µM (inactive) and the GI50 [49] was > 78 µM (inactive). The GI50 [50] was 31.3 µM (inactive), the GI50 [51] was > 100 µM (inactive) and the GI50 [52] was 42.3 µM (inactive).

From ChEMBL document CHEMBL1201862, “PubChem BioAssay data set” (2004)
